In this test the target is T1, Lsp from E. coli (Escherichia coli, UniProt P00804).
T1 construct: The full-length Lsp clone from E. coli (residues 1-164); His6 with enterokinase cleavage site (pET19b) (N); made in house; host or cells: E. coli Lemo21 (DE3), pET19b vector
The experiment in a line: Lsp FRET activity assay, IC50 determination. The class given is biochemical. On the procedure:
[…] […] 50 μM Lsp FRET substrate was subsequently added and the rate of substrate hydrolysis was measured by increase in fluorescence (excitation 355 nm, emission 495 nm) in 96-well plates on a PerkinElmer EnVision plate reader or Tecan Safire 2 microplate reader. Michaelis-Menten constants and […] were determined using GraphPad Prism software (GraphPad, Inc.).

The mark [1] stands for this setting: Table 5, [Lsp] = 20 nM, read-out: IC50.
[2] abbreviates: Table 5, E = 100 nM, read-out: IC50.
Where [3] appears, read: Table 7, linker variation, E = 100 nM, read-out: IC50.
Where [4] appears, read: Table 2, variation of R3, read-out: IC50.
[5] abbreviates: FRET-based assay, [Lsp] = 400 nM, mean (± SD), read-out: IC50.

Results on 55 compounds are retold here after patent publication US20200181101A1, “BENZAMIDE INHIBITORS OF BACTERIAL LIPOPROTEIN SIGNAL PEPTIDASE” (The Scripps Research Institute, priority 2017, published 2020).

Like-named read-outs stand apart in the source and are kept apart here. Square brackets hold non-standard residues; d marks the D form. Peptide text beside a SMILES is read from it. * marks the point of attachment. Sta = CC(C)C[C@H](N)[C@@H](O)CC(=O)O; Isovaleryl = CC(C)CC(=O)*

As a reminder, the IC50 is the concentration that inhibits the measured activity by half.

T1 sequence (P00804 whole entry, the tested form may be a part): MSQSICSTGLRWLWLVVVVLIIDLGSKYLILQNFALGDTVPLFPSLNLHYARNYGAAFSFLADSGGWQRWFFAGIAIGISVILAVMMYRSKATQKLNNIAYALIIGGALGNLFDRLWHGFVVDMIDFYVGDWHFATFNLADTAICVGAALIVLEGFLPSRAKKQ

For the compound `COC(=O)N[C@H](C(=O)N[C@@H](Cc1ccccc1)[C@@H](O)CN(Cc1ccc(-c2ccccn2)cc1)NC(=O)[C@@H](NC(=O)OC)C(C)(C)C)C(C)(C)C` [atazaniavir, reference compound], the “inhibition of E. coli Lsp by known aspartic acid protease inhibitors” value (“inhibition of E. coli Lsp” below) was “no known aspartic acid protease inhibitors”.
For the compound `CCC(CC)c1nnc(NC(=O)c2cc(OC)c(OCc3ccccc3)cc2[N+](=O)[O-])s1` [Sk054-82-3], under setting [1], the IC50 is 2.9 µM.
As to `COc1cc(C(=O)Nc2ccc(C(C)C)nc2)c([N+](=O)[O-])cc1OC` [Sk056-82-4], the IC50 (Table 3, read-out: IC50) is > 400 µM.
As for `CCC(CC)c1nnc(NC(=O)c2cc(Cl)c(Oc3ccc(NC(=O)OC(C)(C)C)cc3)cc2[N+](=O)[O-])s1` [Sk061-29], the IC50 is 0.64 µM under setting [2] and 0.64 µM under setting [3].
In the case of `COc1cc(C(=O)Nc2nnc(C3CC3)s2)c([N+](=O)[O-])cc1OC` [Sk052-147-1], the 50% inhibitory concentration (IC50) under setting [4] came out at 208 µM.
For `COCCCOc1cc(C[C@@H](C[C@H](N)[C@@H](O)C[C@H](C(=O)NCC(C)(C)C(N)=O)C(C)C)C(C)C)ccc1OC` [aliskiren, reference compound], the “inhibition of E. coli Lsp” value is given as “no known aspartic acid protease inhibitors”.
For `CCC(CC)c1nnc(NC(=O)c2cc(Cl)c(OC3CCN(C(=O)OC(C)(C)C)CC3)cc2[N+](=O)[O-])s1` [Sk061-80-4], the IC50 under setting [3] came to 1.1 µM.
Regarding `COc1cc(C(=O)Nc2nnc(C(C)C)s2)c([N+](=O)[O-])cc1OC` [Sk061-69-1], the IC50 stood at 44 µM under setting [4] and 44 µM (Table 3, read-out: IC50).
`CCC(CC)c1nnc(NC(=O)c2cc(Cl)c(OCCCCCCNC(=O)OC(C)(C)C)cc2[N+](=O)[O-])s1` [Sk061-54]: the IC50 under setting [2] is ~2.3 µM and the IC50 under setting [3] came to 2.3 µM.
Consider `CC(C)CC(=O)N[C@H](C(=O)N[C@H](C(=O)N[C@@H](CC(C)C)[C@@H](O)CC(=O)N[C@@H](C)C(=O)N[C@@H](CC(C)C)[C@@H](O)CC(=O)O)C(C)C)C(C)C` [pepstatin, reference compound] (Isovaleryl-VV[Sta]A[Sta]-OH), for which the “inhibition of E. coli Lsp” value was “no known aspartic acid protease inhibitors”.
On to `CCC(CC)c1nnc(NC(=O)c2ccc(OC3CCCC3)cc2[N+](=O)[O-])s1` [Sk054-116-1], for which the IC50 under setting [1] came to 0.4 µM.
Compound `CCC(CC)c1nnc(NC(=O)c2cc(OS(=O)(=O)F)ccc2[N+](=O)[O-])s1` [Sk054-144] came in with a 50% inhibitory concentration (IC50) of 65 µM.
With `COc1cc(C(=O)Nc2nnc(C(C)(C)C)s2)c([N+](=O)[O-])cc1OC` [Sk061-69-3], the IC50 under setting [4] is 36 µM.
Consider `CCC(CC)c1nnc(NC(=O)c2cc(Cl)c(OC3CCC(C)(C)CC3)cc2[N+](=O)[O-])s1` [Sk061-31-1], for which the 50% inhibitory concentration (IC50) under setting [2] came to 0.23 µM.
Turning to `CCCCc1nnc(NC(=O)c2cc(OC)c(OC)cc2[N+](=O)[O-])s1` [1d], the IC50 runs as follows: under setting [5], 29 µM; under setting [4], 29 ± 0.6 µM.
On to `CCCCCc1nnc(NC(=O)c2cc(OC)c(OC)cc2[N+](=O)[O-])s1` [Sk052-147-2], for which, under setting [4], the IC50 came to 26 µM.
Turning to `CCCCC(CC)c1nnc(NC(=O)c2cc(OC)c(OC)cc2[N+](=O)[O-])s1` (stereo not shown) [Sk061-69-4], under setting [4], the IC50 was 2.5 µM.
On to `CC(C)(C)NC(=O)[C@@H]1C[C@@H]2CCCC[C@@H]2CN1C[C@@H](O)[C@H](Cc1ccccc1)NC(=O)[C@H](CC(N)=O)NC(=O)c1ccc2ccccc2n1` [saquinavir, reference compound], for which the “inhibition of E. coli Lsp” value was “no known aspartic acid protease inhibitors”.
For the compound `CCOc1cc([N+](=O)[O-])c(C(=O)Nc2nnc(C(CC)CC)s2)cc1OC` [1f, 4-ethoxy-5-methoxy-2-nitro-N-(5-(pentan-3-yl)-1,3,4-thiadiazol-2-yl)benzamide], the IC50 under setting [5] came to 1.2 µM.
As for `CCC(CC)c1nnc(NC(=O)c2cc(OC)ccc2[N+](=O)[O-])s1` [Sk052-146-1], under “Table 4, read-out: IC50”, the IC50 is 3.6 µM.
Turning to `COC(=O)CCc1nnc(NC(=O)c2cc(OC)c(OC)cc2[N+](=O)[O-])s1` [Sk052-147-3], the IC50 under setting [4] is > 200 µM.
As to `CCCCOc1cc([N+](=O)[O-])c(C(=O)Nc2nnc(C(CC)CC)s2)cc1OC` [1g, 4-butoxy-5-methoxy-2-nitro-N-(5-(pentan-3-yl)-1,3,4-thiadiazol-2-yl)benzamide], the IC50 (FRET-based assay, [Lsp] = 100 nM, mean (± SD), read-out: IC50) came out at 0.54 µM.
For `CCC(CC)c1nnc(NC(=O)c2cc(Cl)c(OCCNC(=O)OC(C)(C)C)cc2[N+](=O)[O-])s1` [Sk061-68], the IC50 under setting [3] came out at 0.21 µM.
For the compound `O=C(O)CCSCCCCCc1nnc(NC(=O)c2cc(Cl)c(OC3CCCC3)cc2[N+](=O)[O-])s1` [Sk056-27], under “Table 6, read-out: IC50”, the IC50 is 11 µM.
For `CC(C)[C@H](O)C(=O)N[C@@H](C)C(=O)N[C@@H]1C(=O)N(C)CCc2ccccc21` [semagacestat, reference compound], the “inhibition of E. coli Lsp” value was “no known aspartic acid protease inhibitors”.
`CCC(CC)c1nnc(NC(=O)c2cc(Cl)c(Oc3ccccc3)cc2[N+](=O)[O-])s1` [Sk056-22-2]: the half-maximal inhibitory concentration (IC50) under setting [1] came out at 0.19 µM.
Consider “N-(5-buty-1,3,4-oxadiazol-2-yl)-4,5-dimethoxy-2-nitrobenzamide [1e]”, for which the “potency against Lsp, in words (SAR)” value is “inactive”. In addition, the IC50 under setting [5] was > 400 µM.
Regarding `O=C(Nc1nnc(CCCCCCl)s1)c1cc(Cl)c(OC2CCCC2)cc1[N+](=O)[O-]` [Sk056-15], the IC50 (Table 6, read-out: IC50) was found to be 3.8 µM.
`CCC(C)c1nnc(NC(=O)c2cc(OC)c(OC)cc2[N+](=O)[O-])s1` (stereo not shown) [Sk061-69-2]: the IC50 under setting [4] was determined as 8.7 µM.
As to `CCOC(=O)Cc1nnc(NC(=O)c2cc(OC)c(OC)cc2[N+](=O)[O-])s1` [Sk052-27-2], under setting [4], the IC50 was 78 µM.
Take `COC(=O)CCSCCCCCc1nnc(NC(=O)c2cc(Cl)c(OC3CCCC3)cc2[N+](=O)[O-])s1` [Sk056-26]: the half-inhibitory concentration (IC50) (Table 6, read-out: IC50) was 3.2 µM.
Consider `CCC(CC)c1nnc(NC(=O)c2cc(Cl)c(OCCCCCCN)cc2[N+](=O)[O-])s1` [Sk061-45], for which the IC50 under setting [2] was > 4 µM.
Turning to `CCC(CC)c1nnc(NC(=O)c2ccc(NCCS(=O)(=O)F)cc2[N+](=O)[O-])s1` [Sk056-45-3], the midpoint of inhibition, the IC50, lay at 19 µM.
Turning to `COc1cc(C(=O)Nc2nnc(C3CCCCC3)s2)c([N+](=O)[O-])cc1OC` [Sk052-56], the IC50 under setting [4] is > 400 µM.
Turning to `CCC(CC)c1nnc(NC(=O)c2ccc(OC)cn2)s1` [Sk054-91-2], the IC50 (Table 4, read-out: IC50) is > 400 µM.
In the case of `CCC(CC)c1nnc(NC(=O)c2cc(OC)c(OC3CCCC3)cc2[N+](=O)[O-])s1` [Sk052-145-2], the IC50 under setting [1] amounted to 0.073 µM.
In the case of `CCC(CC)c1nnc(NC(=O)c2cc(OC)c(OC)cc2[N+](=O)[O-])s1` [1a, 4,5-dimethoxy-2-nitro-N-(5-(pentan-3-yl)-1,3,4-thiadiazol-2-yl)benzamide], the IC50 turned out to be 4.2 µM under setting [5] and 4.2 ± 1 µM under setting [4]. Further, the “manner of Lsp inhibition” value (biochemical analysis) is reported as “non-competitive”.
As to `CCCc1nnc(NC(=O)c2cc(OC)c(OC)cc2[N+](=O)[O-])s1` [Sk054-141-2], the IC50 under setting [4] was 26 µM.
Consider `CCC(CC)c1nnc(NC(=O)c2cc(OS(=O)(=O)On3nnc4ncccc43)ccc2[N+](=O)[O-])s1` [Sk054-141-1], for which the IC50 (Table 4, read-out: IC50) is 120 µM.
On the same count and under the same terms, then `CCC(CC)c1nnc(NC(=O)c2ccc(OC)cc2N)s1` [Sk054-142], with 11 µM.
For the compound `CCC(CC)c1nnc(NC(=O)c2cc(Cl)c(NC3CCCC3)cc2[N+](=O)[O-])s1` [Sk056-16-1], the IC50 under setting [1] came to 0.17 µM.
With `CCC(CC)c1nnc(NC(=O)c2cc(Cl)c(OCCCCNC(=O)OC(C)(C)C)cc2[N+](=O)[O-])s1` [Sk061-80-2], under setting [3], the IC50 was 1.6 µM.
With `CCC(CC)c1nnc(NC(=O)c2c(Cl)cccc2[N+](=O)[O-])s1` [Sk056-82-2], the IC50 (Table 4, read-out: IC50) was 260 µM.
On to `O=S(=O)(N[C@H](CO)C(C(F)(F)F)C(F)(F)F)c1ccc(Cl)s1` [begacestat, reference compound], for which the “inhibition of E. coli Lsp” value is reported as “no known aspartic acid protease inhibitors”.
Consider `CCC(CC)c1nnc(NC(=O)c2ccccc2[N+](=O)[O-])s1` [Sk054-91-1], for which the IC50 (Table 4, read-out: IC50) came to 11 ± 3 µM.
Consider `CCC(CC)c1nnc(NC(=O)c2cc(Cl)c(OC3CCCC3)cc2[N+](=O)[O-])s1` [Sk054-116-2], for which the IC50 under setting [1] was determined as 0.11 ± 0.012 µM and the IC50 (Table 6, read-out: IC50) came out at 0.11 ± 0.012 µM.
On to `CCC(CC)c1nnc(NC(=O)c2cc(Cl)c(OC3CCC(F)(F)CC3)cc2[N+](=O)[O-])s1` [Sk061-31-2], for which the IC50 under setting [2] came out at 0.58 µM.
Turning to `CCC(CC)c1nnc(NC(=O)c2ccccc2C(=O)O)s1` [Sk056-24], the half-inhibitory concentration (IC50) (Table 4, read-out: IC50) was determined as 270 µM.
For the compound `CCC(CC)c1nnc(NC(=O)c2ccc(OC)c(OC)c2)s1` [1b], the “potency against Lsp, in words (SAR)” value was “ablated the potency”. The IC50 under setting [5] came out at 110 µM.
For the compound `CCC(CC)c1nnc(NC(=O)c2cc(Cl)c(Oc3ccc(N)cc3)cc2[N+](=O)[O-])s1` [Sk061-32], under setting [2], the IC50 was ~4 µM.
As for `COc1cc(C(=O)Nc2nnc(CCc3ccccc3)s2)c([N+](=O)[O-])cc1OC` [Sk052-88-2], the IC50 under setting [4] came to 20 µM.
`COc1cc(C(=O)Nc2ccc(C(C)C)cn2)c([N+](=O)[O-])cc1OC` [Sk056-82-3]: the IC50 (Table 3, read-out: IC50) is > 400 µM.
`CCC(CC)c1nnc(NC(=O)c2ccccc2C(=O)OC)s1` [Sk056-13-2]: where the note is “Table 4, read-out: IC50”, the IC50 is 12 µM.
For the compound `CCC(CC)c1nnc(NC(=O)c2cc(Cl)c(Oc3ccc(O)cc3)cc2[N+](=O)[O-])s1` [Sk061-30-1], the IC50 under setting [2] is > 4 µM.
For `CCC(CC)c1nnc(NC(=O)c2cc(Cl)c(OC3CCCCC3)cc2[N+](=O)[O-])s1` [Sk056-29], the 50% inhibitory concentration (IC50) under setting [1] was 0.068 µM.
